Results: US20260200926A1, “TREM2 MODULATORS” (Muna Therapeutics ApS, priority 2022, published 2026)
Like-named read-outs stand apart in the source and are kept apart here.

Target: T1, Human TREM2 (Homo sapiens, UniProt Q9NZC2)
T1 construct: expressed in transfected cells
Assay: Human TREM2 activity: cellular phosphorylation of Syk (AlphaLISA SureFire Ultra p-SYK) in HEK293/DAP12+TREM2 stable cell line
Type: cell-based
Details: for Emax: HEK293, read-out: Emax; for EC50: phospho-Syk AlphaLISA signal, HEK293/DAP12+TREM2 cells, concentration giving 50% of maximal response, read-out: EC50
Summary of the method: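 The read-out was p-Syk (Tyr525/526), measured by AlphaLISA in lysates of a stable HEK293/DAP12+TREM2 clone. Cells (10,000/well, plated the day before) received compound for 30 min at 37 °C. Dosing used 8 points in quadruplicate, top 100 μM with 1:6 dilution, 0.5% final DMSO.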

[1] = maximal response relative to reference agonist example 1B (remaining examples)

T1 sequence (Q9NZC2 19-230): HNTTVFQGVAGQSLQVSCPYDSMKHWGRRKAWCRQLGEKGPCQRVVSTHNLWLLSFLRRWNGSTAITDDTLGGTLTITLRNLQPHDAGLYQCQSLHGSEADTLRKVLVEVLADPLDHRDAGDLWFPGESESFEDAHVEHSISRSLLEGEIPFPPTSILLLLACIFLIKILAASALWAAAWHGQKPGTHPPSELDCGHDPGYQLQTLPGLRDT
T1 sequence (O43914 22-113 partner): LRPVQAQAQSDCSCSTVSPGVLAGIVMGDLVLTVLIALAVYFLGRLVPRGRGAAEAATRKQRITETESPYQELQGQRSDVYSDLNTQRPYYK

Row | SMILES | Emax [1] [%] | EC50 [nM] | Emax (maximal response relative to reference agonist human TREM2 MAB1828 (examples 1, 1A and 1B)) [%]
1 | Cn1c(C(F)(F)F)nc2c(-c3cc(F)c(F)cc3F)nc([C@@H]3CCO[C@H](c4cnn(C5CC5)c4)C3)nc2c1=O (single isomer, unassigned) [Example 186A] | 75 to 110 | 1 to 10 | 
2 | Cn1c(C(F)(F)F)nc2c(-c3cc(F)c(F)cc3F)nc([C@H]3CCO[C@@H](c4cnn(C5CC5)c4)C3)nc2c1=O (single isomer, unassigned) [Example 186B] | < 75 | 100 to 1000 | 
3 | Cc1cc([C@@H]2CN(c3cc4c(=O)n(C)c(C(F)(F)F)nc4c(-c4ccc(F)cc4F)n3)C[C@H](C)O2)ccn1 (single isomer, unassigned) [Example 189A] | 75 to 110 | 10 to 100 | 
4 | Cc1cc([C@H]2CN(c3cc4c(=O)n(C)c(C(F)(F)F)nc4c(-c4ccc(F)cc4F)n3)C[C@@H](C)O2)ccn1 (single isomer, unassigned) [Example 189B] | 75 to 110 | 100 to 1000 | 
5 | Cc1cc([C@@H]2CN(c3nc(-c4ccc(F)cc4F)c4nc(C(F)(F)F)n(C)c(=O)c4n3)C[C@H](C)O2)ccn1 (single isomer, unassigned) [Example 191A] | < 75 | < 1 | 
6 | Cc1cc([C@H]2CN(c3nc(-c4ccc(F)cc4F)c4nc(C(F)(F)F)n(C)c(=O)c4n3)C[C@@H](C)O2)ccn1 (single isomer, unassigned) [Example 191B] | 75 to 110 | 1 to 10 | 
7 | Cc1cc([C@H]2CN(c3cc4c(=O)n(C)c(C)nc4c(-c4ccc(C(F)F)nc4)n3)C[C@@H](C)O2)ccn1 (single isomer, unassigned) [Example 192B] | 75 to 110 | 1 to 10 | 
8 | Cc1nc2c(-c3ccc(C(F)F)nc3)nc(N3C[C@@H](C)O[C@@H](c4cnn(C5CC5)c4)C3)cc2c(=O)n1C (single isomer, unassigned) [Example 194B] | < 75 | 100 to 1000 | 
9 | Cc1nc2c(-c3ccc(C(F)(F)F)cc3F)nc(N3C[C@@H](C)O[C@@H](c4cnn(C5CC5)c4)C3)nc2c(=O)n1C (single isomer, unassigned) [Example 195B] | 75 to 110 | < 1 | 
10 | Cn1c(C(F)(F)F)nc2c(-c3ccc(F)cc3F)nc([C@@H]3CCO[C@H](c4cnn(C5CC5)c4)C3)nc2c1=O (single isomer, unassigned) [Example 196A] | 75 to 110 | 1 to 10 | 
11 | Cn1c(C(F)(F)F)nc2c(-c3ccc(F)cc3F)nc([C@H]3CCO[C@@H](c4cnn(C5CC5)c4)C3)nc2c1=O (single isomer, unassigned) [Example 196B] | < 75 | 10 to 100 | 
12 | Cc1cc([C@H]2CN(c3cc4c(=O)n(C)c(C)nc4c(-c4ccc(C(F)(F)F)nc4)n3)C[C@@H](C)O2)ccn1 (single isomer, unassigned) [Example 199B] | 75 to 110 | < 1 | 
13 | Cc1nc2c(-c3ccc(C#N)cc3F)nc(N3C[C@@H](C)O[C@@H](c4cnn(C5CC5)c4)C3)cc2c(=O)n1C (single isomer, unassigned) [Example 200B] | 75 to 110 | 10 to 100 | 
14 | Cc1nc2c(-c3ccc(F)cc3C#N)nc(N3C[C@@H](c4cnn(C5CC5)c4)O[C@@H](C)C3)cc2c(=O)n1C (single isomer, unassigned) [Example 201A] | < 75 | > 1000 | 
15 | Cc1nc2c(-c3ccc(F)cc3C#N)nc(N3C[C@@H](C)O[C@@H](c4cnn(C5CC5)c4)C3)cc2c(=O)n1C (single isomer, unassigned) [Example 201B] | < 75 | > 1000 | 
16 | Cc1nc2c(-c3ccc(C(F)(F)F)cc3C#N)nc(N3C[C@@H](C)O[C@@H](c4cnn(C5CC5)c4)C3)cc2c(=O)n1C (single isomer, unassigned) [Example 202B] | < 75 | > 1000 | 
17 | Cc1nc2c(-c3ccc(Cl)cc3F)nc(N3CCO[C@@H](c4cnn(C)c4)C3)nc2c(=O)[nH]1 (single isomer, unassigned) [Example 203B] | < 75 | 100 to 1000 | 
18 | Cc1nc2c(-c3ccc(Cl)cc3F)nc(N3CCOC(c4cnn(C)c4)C3)nc2c(=O)n1C (centres unmarked) [Example 1, 8-(4-chloro-2-fluorophenyl)-2,3-dimethyl-6-(2-(1-methyl-1H-pyrazol-4-yl)morpholino)pyrimido[5,4-d]pyrimidin-4 (3H)-one] |  | 10 to 100 | 75 to 110

The remaining lines, values ahead:

Row | Emax [1] [%] | EC50 [nM] | Emax (maximal response relative to reference agonist human TREM2 MAB1828 (examples 1, 1A and 1B)) [%] | SMILES
19 | 75 to 110 | 10 to 100 |  | Cc1nc2c(-c3ccc(F)cc3F)nc(N3C[C@@H](c4cnn(C5CC5)c4)O[C@@H](C)C3)cc2c(=O)n1C (single isomer, unassigned) [Example 190A]
20 | < 75 | 100 to 1000 |  | Cc1nc2c(-c3ccc(F)cc3F)nc(N3C[C@@H](C)O[C@@H](c4cnn(C5CC5)c4)C3)cc2c(=O)n1C (single isomer, unassigned) [Example 190B]
21 | < 75 | 100 to 1000 |  | Cc1cc([C@@H]2CN(c3cc4c(=O)n(C)c(C)nc4c(-c4ccc(C(F)F)nc4)n3)C[C@H](C)O2)ccn1 (single isomer, unassigned) [Example 192A]
22 | 75 to 110 | 1 to 10 |  | C[C@H]1CN(c2cc3c(=O)n(C)c(C(F)(F)F)nc3c(-c3ccc(F)cc3F)n2)C[C@@H](c2cnn(C3CC3)c2)O1 (single isomer, unassigned) [Example 193A]
23 | < 75 | 10 to 100 |  | C[C@@H]1CN(c2cc3c(=O)n(C)c(C(F)(F)F)nc3c(-c3ccc(F)cc3F)n2)C[C@H](c2cnn(C3CC3)c2)O1 (single isomer, unassigned) [Example 193B]
24 | 75 to 110 | 10 to 100 |  | Cc1nc2c(-c3ccc(C(F)F)nc3)nc(N3C[C@@H](c4cnn(C5CC5)c4)O[C@@H](C)C3)cc2c(=O)n1C (single isomer, unassigned) [Example 194A]
25 | < 75 | 1 to 10 |  | Cc1nc2c(-c3ccc(C(F)(F)F)cc3F)nc(N3C[C@@H](c4cnn(C5CC5)c4)O[C@@H](C)C3)nc2c(=O)n1C (single isomer, unassigned) [Example 195A]
26 | < 75 | 10 to 100 |  | Cn1c(C(F)(F)F)nc2c(-c3ccc(F)cc3F)nc([C@@H]3CCO[C@H](c4cnn(C5CC5)c4)C3)cc2c1=O (single isomer, unassigned) [Example 197A]
27 | < 75 | 1 to 10 |  | Cn1c(C(F)(F)F)nc2c(-c3ccc(F)cc3F)nc([C@H]3CCO[C@@H](c4cnn(C5CC5)c4)C3)cc2c1=O (single isomer, unassigned) [Example 197B]
28 | < 75 | 10 to 100 |  | Cc1cc([C@@H]2CN(c3cc4c(=O)n(C)c(C)nc4c(-c4ccc(C(F)(F)F)nc4)n3)C[C@H](C)O2)ccn1 (single isomer, unassigned) [Example 199A]
29 | 75 to 110 | < 1 |  | Cc1nc2c(-c3ccc(C#N)cc3F)nc(N3C[C@@H](c4cnn(C5CC5)c4)O[C@@H](C)C3)cc2c(=O)n1C (single isomer, unassigned) [Example 200A]
30 | < 75 | > 1000 |  | Cc1nc2c(-c3ccc(C(F)(F)F)cc3C#N)nc(N3C[C@@H](c4cnn(C5CC5)c4)O[C@@H](C)C3)cc2c(=O)n1C (single isomer, unassigned) [Example 202A]
31 | < 75 | 100 to 1000 |  | Cc1nc2c(-c3ccc(Cl)cc3F)nc(N3CCO[C@H](c4cnn(C)c4)C3)nc2c(=O)[nH]1 (single isomer, unassigned) [Example 203A]
